Measured values: patent US20150153325A1 (priority 2012, published 2015)
pEC50: −log10 of the molar value. Values joined by “and” are separate entries in the source; they are usually repeats but may differ in a detail not shown here. Equal values may be shown once. Read-outs that look alike come from different tables or passages of the source.

How the values were obtained:
ESNs [1] = test: cells; type: cell-based, mouse; settings: read-out: EC50 of loss of viability (metabolic activity)
ESNs [2] = type: cell-based, mouse
[3] = system: glutamate-induced neurotoxicity in ESNs; type: cell-based, mouse
[4] = system: Ca^2+ influx through LTX pores; type: cell-based, mouse
ESNs [5] = type: cell-based, mouse; remark: listed apart in the source
BoNT/A-intoxicated ESNs = type: cell-based, mouse
ESNs [6] = type: cell-based, mouse; settings: read-out: EC50 for Ca^2+ uptake
ESNs [7] = type: cell-based, mouse; remark: listed apart in the source
ESNs [8] = type: cell-based, mouse; remark: listed apart in the source
ESNs [9] = settings: mouse
ESNs [10] = type: cell-based, mouse; remark: listed apart in the source
VAMP2 = VAMP2 (Mus musculus, UniProt P63044); type: cell-based
VAMP2, sequence (P63044 2-116 limits assumed): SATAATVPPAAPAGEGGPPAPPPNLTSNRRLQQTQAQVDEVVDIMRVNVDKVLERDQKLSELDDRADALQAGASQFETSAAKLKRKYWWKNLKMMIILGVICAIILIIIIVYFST

CN[C@H](CC(=O)O)C(=O)O [NMDA, N-methyl-D-aspartate]
pEC50 (ESNs [1]): 6.41

NCCCC(=O)O [GABA, γ-aminobutyric acid]
acute Ca^2+ uptake (ESNs [2]): no effect

N[C@H](CCCP(=O)(O)O)C(=O)O [APV, R-2-amino-5-phosphonopentanoate]
effect on NMDA-induced neurotoxicity [3]: blocked in a dose-dependent manner
effect on glutamate-induced cell death [3]: prevented glutamate-induced cell death in a dose-dependent manner

gadolinium chloride [Gd^3+]
effect on glutamate-induced cell death [3]: no effect on viability
elimination of acute glutamate-evoked Ca^2+ signal (ESNs [2]): over 95%

α-Latrotoxin [LTX]
Ca^2+ influx, normalized to LTX (%) [4]: 100.0%
decrease of total protein yield compared to controls (ESNs [5]): 44±16% and 52±19%
decrease of total protein yield relative to untreated cultures (ESNs [5]): approximately 50%
rescue of full-length SNAP-25 (BoNT/A-intoxicated ESNs): 92±4.6% and 98±1.7%
pEC50 (ESNs [6]): 9.76
delay between addition and onset of Fluo-4 fluorescence (ESNs [7]): 1.5 min

NCc1cc(=O)[nH]o1 [muscimol]
GABA-A receptor current (ESNs [8]): evokes a strong outward Cl− current

N[C@@H](CCC(=O)O)C(=O)[O-].[Na+] [glutamate, Mono-sodium glutamate]
concentration at which primary necrosis was first observed (ESNs [9]): 3000 µM
duration of evoked series of action potentials (ESNs [8]): 5 to 10 s
Normalize log2 (FC) Casp4 (ESNs [10]): 2.96
Normalize log2 (FC) Casp6 (ESNs [10]): 2.15
Normalize log2 (FC) Casp12 (ESNs [10]): 3.03
Normalize log2 (FC) Cdk1 (ESNs [10]): 3.11
Normalize log2 (FC) CflaR (ESNs [10]): 2.54
Normalize log2 (FC) Dap1 (ESNs [10]): 2.84
Normalize log2 (FC) Dapk2 (ESNs [10]): 4.18
Normalize log2 (FC) Dram1 (ESNs [10]): 2.63
Normalize log2 (FC) Fadd1 (ESNs [10]): 1.98
Normalize log2 (FC) Grin1 (ESNs [10]): 0.39
Normalize log2 (FC) Pawr (ESNs [10]): 3.49
Normalize log2 (FC) Snap25 (ESNs [10]): −0.52
Normalize log2 (FC) Traf1 (ESNs [10]): 5.02
pEC50 (ESNs [1]; Mus musculus, 24 h): 6.39

N#Cc1cc2c(cc1[N+](=O)[O-])=NC(=O)C(=O)N=2 [CNQX, 6-cyano-7-nitroquinoxaline-2,3-dione]
effect on glutamate-induced cell death [3]: not protective

Tetanospasmin neurotoxin [tetanus]
VAMP2 signal by immunoblot (VAMP2): nearly complete loss of VAMP2 signal
